{
  "source": "patent EP3122315B1",
  "about": "“ACTIVE-INGREDIENT COMBINATIONS CONSISTING OF 4-HYDROXYACETOPHENONE AND ONE OR MORE GLYCERIN AND/OR OLIGOGLYCERIN ESTERS OF BRANCHED CHAINS AND/OR UNBRANCHED CHAINS OF ALKANE CARBOXYLIC ACIDS, AND COSMETIC OR DERMATOLOGICAL PREPARATIONS CONTAINING SAID ACTIVE-INGREDIENT COMBINATIONS” (Symrise AG, priority 2014, dated 2015)",
  "experiment": "Solubility tests of 4-hydroxyacetophenone in cosmetic oil with or without glycerol ester additive",
  "conditions": "for Löslichkeit \"HAP\" bei 35 °C / Löslichkeit \"HAP\" bei RT: solvent C12-15 Alkylbenzoate; for Löslichkeit \"HAP\" bei RT: room temperature (ca. 20 °C)",
  "description": "Die Durchführung der Löslichkeitsversuche erfolgte bei 2 verschiedenen Temperaturen: Bei Raumtemperatur (ca. 20 °C) und bei 35 °C.\nDas weiße, kristalline 4-Hydroxyacetophenon (\"4-HAP\") wurde in kleinen Portionen langsam (über mehrere Stunden) zum jeweiligen Lösungsmittel unter Rühren hinzugegeben, bis sich kein weiteres Material mehr lösen ließ. Hier war die Löslichkeitsgrenze erreicht. Nicht gelöstes Material war deutlich als milchiger Niederschlag oder einzelne Kristalle erkennbar. Das Additiv (der jeweilige Glycerinester) wurde ebenfalls in kleinen Portionen hinzugegeben.\nDie Experimente bei 35°C wurden im Wasserbad durchgeführt. Die Temperatur wurde per Temperatursonde, welche mit dem Heizrührer verbunden war, konstant gehalten. Die Experimente wurden in verschraubten 15 ml Gläsern durchgeführt, um ein Verdampfen des Lösungsmittels zu verhindern. Die Löslichkeit wurde 12-24 Stunden nach der letzten Substanzzugabe gemessen, so dass sich das System equilibrieren konnte. […] Die Löslichkeitsversuche wurden in dem bekannten kosmetischen Öl \"C12-15 Alkylbenzoate\", erhältlich unter anderem unter dem Handelsnamen Tegesoft® TN B von der Firma Evonik, durchgeführt. Die Ergebnisse sind in Tabelle 1 wiedergegeben: Tabelle 1",
  "note": "Where two headings read alike, the source gives them in different places.",
  "data": [
    {"compound": "Polyglyceryl-2-caprat", "values": [
      {"measurement": "Löslichkeit des Glycerylesters im verwendeten Lösungsmittel (kosmetischen öl)", "setting": "1 % of the ester in C12-15 Alkylbenzoate, 35°C", "result": "vollständig"},
      {"measurement": "Löslichkeit des Glycerylesters im verwendeten Lösungsmittel (kosmetischen öl)", "setting": "1 % of the ester in C12-15 Alkylbenzoate, RT", "result": "vollständig"}
    ]},
    {"compound": "Glycerylstearatcitrate [reference compound]", "values": [
      {"measurement": "Einfluss auf die Löslichkeit von 4-Hydroxyacetophenon", "result": "keinen Einfluss"}
    ]},
    {"compound": "CCCCCCCC(=O)OCC(O)CO", "note": "(centres unmarked) [Glycerylcaprylat]", "values": [
      {"measurement": "Löslichkeit des Glycerylesters im verwendeten Lösungsmittel (kosmetischen öl)", "result": "vollständig"}
    ]},
    {"compound": "CC(=O)c1ccc(O)cc1", "note": "[HAP, 4-Hydroxyacetophenon]", "values": [
      {"measurement": "Kristalle mit (Löslichkeit \"HAP\" bei 35 °C)", "setting": "concentration at which undissolved crystals were seen, no glycerol ester, C12-15 Alkylbenzoate, 35 °C", "result": 3, "unit": "%"},
      {"measurement": "Kristalle bei (Löslichkeit \"HAP\" bei RT)", "setting": "concentration at which undissolved crystals were seen, no glycerol ester, C12-15 Alkylbenzoate, room temperature", "result": "2,25%"},
      {"measurement": "Löslichkeit \"HAP\" bei 35 °C", "setting": "no glycerol ester (Ohne), 35 °C water bath", "result": "2,5%"},
      {"measurement": "Löslichkeit \"HAP\" bei RT", "setting": "no glycerol ester (Ohne), read 12-24 h after last addition", "result": 2, "unit": "%"},
      {"measurement": "Löslichkeit \"HAP\" bei RT", "setting": "with 0,5 % Polyglyceryl-2-caprat", "result": "2,25 % gelöst"},
      {"measurement": "Löslichkeit \"HAP\" bei 35 °C", "setting": "with 1 % Glycerylcaprylat, 35 °C", "result": "3 % gelöst (Steigerung im Vergleich zu 2,5 % ohne Ester"},
      {"measurement": "Löslichkeit \"HAP\" bei RT", "setting": "with 1 % Glycerylcaprylat", "result": "2,25 % gelöst"},
      {"measurement": "Löslichkeit \"HAP\" bei 35 °C", "setting": "with 1 % Polyglyceryl-2-caprat, 35 °C", "result": "3 % gelöst (Steigerung im Vergleich zu 2,5 % ohne Ester)"},
      {"measurement": "Löslichkeit \"HAP\" bei RT", "setting": "with 1 % Polyglyceryl-2-caprat", "result": "< 2,25 % nicht vollständig gelöst"}
    ]},
    {"compound": "CCCCCCCCCCCCCCCCCC(=O)OCC(O)CO", "note": "(centres unmarked) [Glycerylstearate, reference compound]", "values": [
      {"measurement": "Einfluss auf die Löslichkeit von 4-Hydroxyacetophenon", "setting": "known emulsifier used as additive, concentration not given", "result": "keinen Einfluss"}
    ]}
  ]
}
